Data as given in patent publication US10894040B2, “S1P modulating agents” (BIOGEN MA INC., priority 2011, dated 2021).

Test system: A2B5+ OPCs
Test: OPC differentiation assay
Type: cell-based, Sprague Dawley rats
Settings: 3-day incubation; for activity in the OPC assay at 2 micromolar / activity in the OPC assay at 20 micromolar: symbols not defined in the patent; for EC50: Rattus norvegicus, 72 h, MSD analysis
Experimental: OPC Differentiation Assay
Enriched populations of oligodendrocytes were grown from post-natal day 2 (P2) female Sprague Dawley rats. The forebrain was dissected out and placed in Hank's buffered saline solution (HBSS; Invitrogen, Grand Island, N.Y.). The tissue was cut into 1 mm fragments and incubated at 37° C. for 15 minutes in 0.01% trypsin and 10 μg/mL DNase. Dissociated cells were plated on poly-L-lysine-coated T75 tissue culture flasks and grown at 37° C. for 10 days in Dulbecco's modified Eagle's medium (DMEM) with 20% fetal calf serum (Invitrogen). A2B5^+ OPCs were collected by shaking the flask overnight at 200 rpm and 37° C., resulting in a 95% pure population.
For the differentiation assay, 2 μM and 20 μM antagonist or the same concentrations of vehicle (DMSO) were applied to OPCs cultured in CNTF/T3 containing media. After a 3-day incubation, […], cell were lysed and then subjected to MSD (Meso Scale Discovery-R) analysis. EC50 was calculated by Prism using a nonlinear sigmoidal dose-response curvecells. Alternatively, cells were lysed in 80 μL lysis buffer (50 mM HEPES [4-(2-hydroxyethyl)-1-piperazineethanesulfonic acid], pH 7.5, 150 mM NaCl, 1.5 mM MgCl2, 1 mM ethylene glycol tetraacetic acid [EGTA], 1% Triton X-100 and 10% glycerol) for 30 minutes at 4° C. After centrifugation at 14,000 g for 15 minutes, the supernatants were boiled in Laemmli sample buffer, subjected to 4-20% SDS-PAGE, and analyzed by Western blotting with anti-MBP, anti-myelin-associated glycoprotein (MAG), or anti-beta actin antibodies. The secondary antibodies used were anti-mouse IgG-HRP (horseradish peroxidase) and anti-rabbit IgG-HRP respectively.

SMILES | activity in the OPC assay at 2 micromolar | activity in the OPC assay at 20 micromolar | EC50 [µM]
CCCCC1CCC(Oc2ccc3cc(CN4CCC(C(=O)O)CC4)ccc3c2)CC1 (mixture of isomers) [Example 32, 1-((6-(4-Butylcyclohexyloxy)naphthalen-2-yl)methyl)piperidine-4-carboxylic acid] | + to ++++ | + to ++++ | < 10
CC(C)(C)[C@H]1CC[C@H](Oc2ccc3nc(CN4CCC(C(=O)O)CC4)ncc3c2)CC1 [Example 15, 1-((6-(trans-4-tert-Butylcyclohexyloxy)quinazolin-2-yl)methyl)piperidine-4-carboxylic acid] | + to ++++ | – | –
CC(C)(C)[C@H]1CC[C@H](Oc2ccc3cc(C(N4CCC(C(=O)O)CC4)C(F)(F)F)ccc3c2)CC1 (stereo partly drawn) [Example 22, 1-(1-(6-(trans-4-tert-Butylcyclohexyloxy)naphthalen-2-yl)-2,2,2-trifluoroethyl)piperidine-4-carboxylic acid] | + to ++++ | + to ++++ | < 10
CC(C)C1CCC(Oc2ccc3cc(CN4CCC(C(=O)O)CC4)ccc3c2)CC1 (centres unmarked) [Example 24, 1-((6-(4-Isopropylcyclohexyloxy)naphthalen-2-yl)methyl)piperidine-4-carboxylic acid] | – | – | < 10
CC(C)(C)[C@H]1CC[C@@H](Oc2ccc3cc(CN4CCC(C(=O)O)CC4)ccc3c2)CC1 [Example 26, 1-((6-(cis-4-tert-Butylcyclohexyloxy)naphthalen-2-yl)methyl)piperidine-4-carboxylic acid] | – | + to ++++ | < 10
CCC1CCC(Oc2ccc3cc(CN4CCC(C(=O)O)CC4)ccc3c2)CC1 (centres unmarked) [Example 30, 1-((6-(4-Ethylcyclohexyloxy)naphthalen-2-yl)methyl)piperidine-4-carboxylic acid] | + to ++++ | + to ++++ | < 10
O=C(O)C1CCN(Cc2ccc3cc(OC4CCC5(CCCC5)CC4)ccc3c2)CC1 [Example 34, 1-((6-(Spiro[4.5]decan-8-yloxy)naphthalen-2-yl)methyl)piperidine-4-carboxylic acid] | – | + to ++++ | –
CC[C@H]1CC[C@@H](Oc2ccc3cc(CN4CCC(C(=O)O)CC4)ccc3c2)CC1 [Example 36, 1-((6-(cis-4-Ethylcyclohexyloxy)naphthalen-2-yl)methyl)piperidine-4-carboxylic acid] | + to ++++ | + to ++++ | –
CC[C@H]1CC[C@H](Oc2ccc3cc(CN4CCC(C(=O)O)CC4)ccc3c2)CC1 [Example 38, 1-((6-(trans-4-Ethylcyclohexyloxy)naphthalen-2-yl)methyl)piperidine-4-carboxylic acid] | – | + to ++++ | –
CC(C)(C)[C@H]1CC[C@H](Oc2ccc3nc(CN4CCC(C(=O)O)CC4)ccc3c2)CC1 [Example 42, 1-((6-(trans-4-tert-Butylcyclohexyloxy)quinolin-2-yl)methyl)piperidine-4-carboxylic acid] | + to ++++ | + to ++++ | < 10
CC(C)(C)[C@H]1CC[C@H](Oc2ccc3cc(C(=O)N4CCC(C(=O)O)CC4)ccc3c2)CC1 [Example 48, 1-(6-(trans-4-tert-Butylcyclohexyloxy)-2-naphthoyl)piperidine-4-carboxylic acid] | + to ++++ | + to ++++ | –
CC(C)(C)C1CCC(=Cc2ccc3cc(CN4CCC(C(=O)O)CC4)ccc3c2)CC1 (centres unmarked) [Example 52, 1-((6-((4-tert-Butylcyclohexylidene)methyl)naphthalen-2-yl)methyl)piperidine-4-carboxylic acid] | – | + to ++++ | –
CC(C)(C)[C@H]1CC[C@H](Oc2ccc3cc(CN4CCC(C(=O)O)CC4)ccc3n2)CC1 [Example 55, 1-((2-(trans-4-tert-Butylcyclohexyloxy)quinolin-6-yl)methyl)piperidine-4-carboxylic acid] | + to ++++ | – | –
CCC1(C(=O)O)CCN(Cc2ccc3cc(O[C@H]4CC[C@H](C(C)(C)C)CC4)ccc3c2)CC1 [Example 56, 1-[6-(4-tert-Butyl-cyclohexyloxy)-naphthalen-2-ylmethyl]-4-ethyl-piperidine-4-carboxylic acid] | + to ++++ | – | –
CCCC1(C(=O)O)CCN(Cc2ccc3cc(O[C@H]4CC[C@H](C(C)(C)C)CC4)ccc3c2)CC1 [Example 57, 1-[6-(4-tert-Butyl-cyclohexyloxy)-naphthalen-2-ylmethyl]-4-propyl-piperidine-4-carboxylic acid] | + to ++++ | + to ++++ | –
CC1CN(Cc2ccc3cc(O[C@H]4CC[C@H](C(C)(C)C)CC4)ccc3c2)CCC1C(=O)O (some centres unmarked) [Example 58, 1-[6-(4-tert-Butyl-cyclohexyloxy)-naphthalen-2-ylmethyl]-3-methyl-piperidine-4-carboxylic acid] | + to ++++ | + to ++++ | < 10
CC(C)(C)[C@H]1CC[C@H](Oc2ccc3cc(CN4CCC(C(=O)O)(c5ccccc5)CC4)ccc3c2)CC1 [Example 59, 1-[6-(4-tert-Butyl-cyclohexyloxy)-naphthalen-2-ylmethyl]-4-phenyl-piperidine-4-carboxylic acid] | + to ++++ | – | –
CC(C)(C)[C@H]1CC[C@H](Oc2ccc3cc(CN4CCCC(C(=O)O)CC4)ccc3c2)CC1 (some centres unmarked) [Example 60, 1-[6-(4-tert-Butyl-cyclohexyloxy)-naphthalen-2-ylmethyl]-perhydro-azepine-4-carboxylic acid] | + to ++++ | – | < 10
CC(C)(C)[C@H]1CC[C@H](Oc2ccc3cc(CN4CCC(O)(C(=O)O)CC4)ccc3c2)CC1 [Example 61, 1-[6-(4-tert-Butyl-cyclohexyloxy)-naphthalen-2-ylmethyl]-4-hydroxy-piperidine-4-carboxylic acid] | + to ++++ | + to ++++ | < 10
CC(C)(C)[C@H]1CC[C@H](Oc2ccc3cc(CN4CCC(CC(=O)O)CC4)ccc3c2)CC1 [Example 62, {1-[6-(4-tert-Butyl-cyclohexyloxy)-naphthalen-2-ylmethyl]-piperidin-4-yl}-acetic acid] | + to ++++ | + to ++++ | –
CC(C)(C)[C@H]1CC[C@H](Oc2ccc3cc(CN4CCC(C(=O)O)CC4)ncc3c2)CC1 [Example 75, 1-[7-(trans-4-tert-Butyl-cyclohexyloxy)-isoquinolin-3-ylmethyl]-piperidine-4-carboxylic acid] | + to ++++ | + to ++++ | –
CC1(C(=O)O)CCN(Cc2ccc3cc(O[C@H]4CC[C@H](C(C)(C)C)CC4)ccc3c2)CC1 [Example 77, 1-((6-(trans-4-tert-Butylcyclohexyloxy)naphthalen-2-yl)methyl)-4-methylpiperidine-4-carboxylic acid] | + to ++++ | + to ++++ | < 10
O=C(O)C1CCN(Cc2ccc3cc(OC4CCCCCC4)ccc3c2)CC1 [Example 81, 1-((6-(cycloheptyloxy)naphthalen-2-yl)methyl)piperidine-4-carboxylic acid] | – | + to ++++ | –
O=C(O)C1CCN(Cc2ccc3cc(OC4CCOCC4)ccc3c2)CC1 [Example 83, 1-((6-(tetrahydro-2H-pyran-4-yloxy)naphthalen-2-yl)methyl)piperidine-4-carboxylic acid] | + to ++++ | + to ++++ | –
O=C(O)C1CCN(Cc2ccc3cc(OC4CCC5(CCCCC5)CC4)ccc3c2)CC1 [Example 85, 1-((6-(spiro[5.5]undecan-3-yloxy)naphthalen-2-yl)methyl)piperidine-4-carboxylic acid] | + to ++++ | + to ++++ | –
O=C(O)C1CCN(Cc2ccc3cc(OC4CCC5(CCC5)CC4)ccc3c2)CC1 [Example 87, 1-((6-(spiro[3.5]nonan-7-yloxy)naphthalen-2-yl)methyl)piperidine-4-carboxylic acid] | – | + to ++++ | –
CC(C)(C)[C@H]1CC[C@H](Oc2ccc3cc(CN4CCCCC4C(=O)O)ccc3c2)CC1 (some centres unmarked) [Example 88, 1-[6-(4-tert-Butyl-cyclohexyloxy)-naphthalen-2-ylmethyl]-piperidine-2-carboxylic acid] | + to ++++ | – | –
